Target: Coagulation factor XI (Homo sapiens, UniProt P03951)
Experiment: factor XIa inhibitor concentration-response – biochemical, hits from 1536-well screen, dose response (AID 846)
Conditions: pH 7.4; 23 °C

Coagulation factor XI, sequence (P03951 19-387 limits assumed): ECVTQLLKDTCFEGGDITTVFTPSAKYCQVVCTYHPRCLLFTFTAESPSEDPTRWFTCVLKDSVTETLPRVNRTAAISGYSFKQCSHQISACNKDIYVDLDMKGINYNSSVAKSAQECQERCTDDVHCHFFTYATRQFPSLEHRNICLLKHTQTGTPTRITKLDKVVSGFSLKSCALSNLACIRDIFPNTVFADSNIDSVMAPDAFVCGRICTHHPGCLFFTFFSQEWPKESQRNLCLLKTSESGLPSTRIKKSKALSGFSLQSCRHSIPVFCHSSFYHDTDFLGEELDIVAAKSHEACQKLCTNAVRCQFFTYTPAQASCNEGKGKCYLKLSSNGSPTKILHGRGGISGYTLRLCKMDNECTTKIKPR
Coagulation factor XI, sequence (P03951 388-625 limits assumed): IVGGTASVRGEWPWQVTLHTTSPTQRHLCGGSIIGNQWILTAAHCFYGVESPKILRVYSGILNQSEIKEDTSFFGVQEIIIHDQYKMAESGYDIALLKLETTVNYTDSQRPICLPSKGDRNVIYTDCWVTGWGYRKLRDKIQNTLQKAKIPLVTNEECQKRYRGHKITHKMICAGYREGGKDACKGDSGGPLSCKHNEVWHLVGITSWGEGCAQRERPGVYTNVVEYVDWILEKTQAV

| IC50 | SMILES |
| --- | --- |
| > 50 µM | CCCn1cc(C(=O)OCC)c(=O)c2cc(F)c(F)cc21 [SMR000427606] |
| > 50 µM | Cc1nn(C)c(C)c1C=C(C(=O)C(C)C)n1cncn1 [SMR000427822] |
| > 50 µM | O=C1OC(Nc2ccc(F)c([N+](=O)[O-])c2)c2ccccc21 (configuration not stated) [SMR000434389] |
| > 50 µM | CN1CCN(S(=O)(=O)Cc2ccc(Cl)cc2)CC1 [SMR000456888] |
| > 50 µM | COc1ccc(C)cc1NC(=O)COC(=O)C1CCN(C(=O)c2ccc(Cl)cc2)CC1 [[2-[(2-methoxy-5-methyl-phenyl)amino]-2-oxidanylidene-ethyl] 1-(4-chlorophenyl)carbonylpiperidine-4-carboxylate] |
| 3.46 µM | Cc1ccc(C(=O)ON=C2CCS(=O)(=O)c3sccc32)cc1 [[[7,7-bis(oxidanylidene)-5,6-dihydrothieno[2,3-b]thiopyran-4-ylidene]amino] 4-methylbenzoate] |
| > 50 µM | CCOC(=O)c1c(C)n(C)c2ccc(OC)c(NC(=O)CCN3CCC(Cc4ccccc4)CC3)c12 [ethyl 5-methoxy-1,2-dimethyl-4-[3-[4-(phenylmethyl)piperidin-1-yl]propanoylamino]indole-3-carboxylate] |

Further lines, the molecule ahead of its results:

| SMILES | IC50 |
| --- | --- |
| Cn1nnc(CC[N+](C)(C)C)n1 [SMR000427769] | > 50 µM |
| O=C1OCC2OC(O)C(O)C(O)C2OC(=O)c2cc(O)c(O)c(O)c2-c2c(O)c(O)c3oc(=O)c4c(c(O)c(O)c5oc(=O)c2c3c54)-c2c1cc(O)c(O)c2O (configuration not stated) [SMR000445568] | 6.08 µM |
| COc1ccc(Cl)cc1NC(=O)Nc1cn(C)nc1C [SMR000458292] | > 50 µM |
| Cc1ccc(C(=O)NCC(=O)OC(C)C(=O)Nc2ccc(N3CCOCC3)cc2)s1 (configuration not stated) [[1-(4-morpholin-4-ylanilino)-1-oxopropan-2-yl] 2-[(5-methylthiophene-2-carbonyl)amino]acetate] | > 50 µM |
| O=C(COC(=O)c1cc(=O)c2ccccc2o1)NC1CCCCC1 [[2-(cyclohexylamino)-2-oxidanylidene-ethyl] 4-oxidanylidenechromene-2-carboxylate] | > 50 µM |
| O=C(COC(=O)CCc1nc2ccccc2c(=O)[nH]1)Nc1ccc(Cl)cn1 [[2-[(5-chloropyridin-2-yl)amino]-2-oxoethyl] 3-(4-oxo-1H-quinazolin-2-yl)propanoate] | > 50 µM |
| Cc1ccc(NS(=O)(=O)c2ccc(C(=O)OCC(=O)Nc3cc(C)on3)cc2)cc1 [[2-[(5-methyl-1,2-oxazol-3-yl)amino]-2-oxoethyl] 4-[(4-methylphenyl)sulfamoyl]benzoate] | > 50 µM |
| COC(=O)c1cccc(NC(=O)CSc2nnc[nH]2)c1 [methyl 3-{[(4H-1,2,4-triazol-3-ylthio)acetyl]amino}benzoate] | > 50 µM |
| NC(=O)NOCc1ccccc1 [phenylmethoxyurea] | > 50 µM |
| CCN(CC)CCNC(=O)c1ccc(NC(=O)c2cccc(S(=O)(=O)Nc3ccc(C)cc3)c2)cc1 [potassium;[3-[[4-[2-(diethylamino)ethylcarbamoyl]phenyl]carbamoyl]phenyl]sulfonyl-(4-methylphenyl)azanide] | > 50 µM |
